From PubChem BioAssay AID256 (DTP/NCI, 2004)
Where “and” joins values, the source holds several entries; their conditions need not be identical. Equal values may be shown once. Inconclusive results and toxic doses are left out.

Tested on: CD2F1 mice, L1210 leukemia ip, survival T/C
Experiment: NCI In Vivo Anticancer Drug Screen. Data for tumor model L1210 Leukemia (intraperitoneal) in CD2F1 (CDF1) mice
Conditions: higher = longer survival
Summary of the method: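 Implant tumor; dose compound or vehicle; measure endpoint in both groups; report treated divided by control.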

[1] = endpoint: mean survival time, dose: 100.0 mg/kg/injection, schedule: Q01DX001 (ip), vehicle: saline
[2] = endpoint: mean survival time, dose: 200.0 mg/kg/injection, schedule: Q01DX001 (ip), vehicle: saline
[3] = endpoint: mean survival time, dose: 400.0 mg/kg/injection, schedule: Q01DX001 (ip), vehicle: saline
[4] = endpoint: mean survival time, dose: 100.0 mg/kg/injection, schedule: Q01DX001 (ip), vehicle: saline with Tween-80
[5] = endpoint: mean survival time, dose: 200.0 mg/kg/injection, schedule: Q01DX001 (ip), vehicle: saline with Tween-80
[6] = endpoint: mean survival time, dose: 400.0 mg/kg/injection, schedule: Q01DX001 (ip), vehicle: saline with Tween-80
[7] = endpoint: mean survival time, dose: 100.0 mg/kg/injection, schedule: Q04DX003 (ip), vehicle: saline with Tween-80
[8] = endpoint: mean survival time, dose: 200.0 mg/kg/injection, schedule: Q04DX003 (ip), vehicle: saline with Tween-80
[9] = endpoint: mean survival time, dose: 400.0 mg/kg/injection, schedule: Q04DX003 (ip), vehicle: saline with Tween-80
[10] = endpoint: median survival time, dose: 12.5 mg/kg/injection, schedule: Q01DX005 (ip), vehicle: saline
[11] = endpoint: median survival time, dose: 25.0 mg/kg/injection, schedule: Q01DX005 (ip), vehicle: saline
[12] = endpoint: median survival time, dose: 50.0 mg/kg/injection, schedule: Q01DX005 (ip), vehicle: saline
[13] = endpoint: mean survival time, dose: 25.0 mg/kg/injection, schedule: Q04DX003 (ip), vehicle: saline with Tween-80
[14] = endpoint: mean survival time, dose: 50.0 mg/kg/injection, schedule: Q04DX003 (ip), vehicle: saline with Tween-80
[15] = endpoint: mean survival time, dose: 50.0 mg/kg/injection, schedule: Q01DX009 (ip), vehicle: saline with Tween-80
[16] = endpoint: mean survival time, dose: 12.5 mg/kg/injection, schedule: Q04DX003 (ip), vehicle: saline with Tween-80
[17] = endpoint: mean survival time, dose: 100.0 mg/kg/injection, schedule: Q01DX009 (ip), vehicle: saline with Tween-80
[18] = endpoint: mean survival time, dose: 200.0 mg/kg/injection, schedule: Q01DX009 (ip), vehicle: saline with Tween-80
[19] = endpoint: mean survival time, dose: 400.0 mg/kg/injection, schedule: Q01DX009 (ip), vehicle: saline with Tween-80
[20] = endpoint: mean survival time, dose: 100.0 mg/kg/injection, schedule: Q04DX003 (ip), vehicle: saline
[21] = endpoint: mean survival time, dose: 200.0 mg/kg/injection, schedule: Q04DX003 (ip), vehicle: saline
[22] = endpoint: mean survival time, dose: 25.0 mg/kg/injection, schedule: Q01DX009 (ip), vehicle: saline with Tween-80

Nc1c(Cl)cc(Cl)cc1C(=O)O
T/C [1]: 102 % of control
T/C [2]: 100 % of control
T/C [3]: 104 % of control

CC1(C)COC(c2ccccc2Br)=N1
T/C [4]: 109 % of control
T/C [5]: 101 % of control
T/C [6]: 101 % of control

Nc1ccc([N+](=O)[O-])c(S(=O)(=O)O)c1
T/C [7]: 95 % of control
T/C [8]: 95 % of control
T/C [9]: 89 % of control

Nc1nc(=O)n(C2OC(CO)C(O)C2F)cc1I (stereo not drawn)
T/C [10]: 103 % of control
T/C [11]: 102 % of control
T/C [12]: 104 % of control
T/C (endpoint: median survival time, dose: 100.0 mg/kg/injection, schedule: Q01DX005 (ip), vehicle: saline): 97 % of control
T/C (endpoint: median survival time, dose: 200.0 mg/kg/injection, schedule: Q01DX005 (ip), vehicle: saline): 103 % of control

CC(CC(C(=O)O)C(=O)O)C(=O)O (stereo not drawn)
T/C (endpoint: mean survival time, dose: 12.5 mg/kg/injection, schedule: Q01DX009 (ip), vehicle: water): 93 % of control
T/C (endpoint: mean survival time, dose: 25.0 mg/kg/injection, schedule: Q01DX009 (ip), vehicle: water): 93 % of control
T/C (endpoint: mean survival time, dose: 50.0 mg/kg/injection, schedule: Q01DX009 (ip), vehicle: water): 93 % of control
T/C (endpoint: mean survival time, dose: 100.0 mg/kg/injection, schedule: Q01DX009 (ip), vehicle: water): 91 % of control

CCOC(=O)C(C#N)C(C(C)=O)C(=O)OCC (stereo not drawn)
T/C [13]: 103 % of control
T/C [14]: 98 % of control
T/C [7]: 97 % of control

C=C(Br)CNC(=O)OCCCC
T/C [15]: 88 % of control

CCOC(=O)c1ccccc1C(C)CC (stereo not drawn)
T/C (endpoint: mean survival time, dose: 75.0 mg/kg/injection, schedule: Q01DX001 (ip), vehicle: other): 98 % of control
T/C (endpoint: mean survival time, dose: 150.0 mg/kg/injection, schedule: Q01DX001 (ip), vehicle: other): 97 % of control
T/C (endpoint: mean survival time, dose: 300.0 mg/kg/injection, schedule: Q01DX001 (ip), vehicle: other): 95 % of control

CN=C(Nc1ccc(OC)c2ccccc12)SC
T/C (endpoint: mean survival time, dose: 100.0 mg/kg/injection, schedule: Q04DX003 (ip), vehicle: Klucel (hydroxypropylcellulose) (HPC)): 89 % of control
T/C (endpoint: mean survival time, dose: 200.0 mg/kg/injection, schedule: Q04DX003 (ip), vehicle: Klucel (hydroxypropylcellulose) (HPC)): 91 % of control

NNC(=O)c1ccc(Cl)cc1Cl
T/C (endpoint: mean survival time, dose: 6.25 mg/kg/injection, schedule: Q04DX003 (ip), vehicle: saline with Tween-80): 97 % of control
T/C [16]: 101 % of control
T/C [13]: 103 % of control

C=CCOCC1CO1 (stereo not drawn)
T/C (endpoint: mean survival time, dose: 12.5 mg/kg/injection, schedule: Q01DX009 (ip), vehicle: saline): 102 % of control and 103 % of control
T/C (endpoint: mean survival time, dose: 25.0 mg/kg/injection, schedule: Q01DX009 (ip), vehicle: saline): 102 % of control and 111 % of control
T/C [15]: 100 % of control
T/C (endpoint: mean survival time, dose: 50.0 mg/kg/injection, schedule: Q01DX009 (ip), vehicle: saline): 98 % of control and 108 % of control
T/C [17]: 97 % of control
T/C (endpoint: mean survival time, dose: 100.0 mg/kg/injection, schedule: Q01DX009 (ip), vehicle: saline): 94 % of control and 104 % of control
T/C [18]: 103 % of control
T/C (endpoint: mean survival time, dose: 200.0 mg/kg/injection, schedule: Q01DX009 (ip), vehicle: saline): 114 % of control and 105 % of control
T/C [19]: 105 % of control

CCCCCCCCCCCCCCCc1cc(O)ccc1[N+](=O)[O-]
T/C [17]: 111 % of control
T/C [18]: 115 % of control
T/C [19]: 96 % of control

CC12CCC(=O)C(I)(I)C1=CCCC2=O (stereo not drawn)
T/C [4]: 91 % of control
T/C [17]: 88 % of control
T/C [18]: 88 % of control
T/C [19]: 87 % of control

CCCC(CC)(C[NH-])C[NH-].[Cl][Pt+2][Cl]
T/C (endpoint: mean survival time, dose: 6.25 mg/kg/injection, schedule: Q04DX003 (ip), vehicle: saline): 120 % of control and 109 % of control
T/C (endpoint: mean survival time, dose: 12.5 mg/kg/injection, schedule: Q04DX003 (ip), vehicle: saline): 121 % of control and 109 % of control
T/C (endpoint: mean survival time, dose: 25.0 mg/kg/injection, schedule: Q04DX003 (ip), vehicle: saline): 114 % of control
T/C [20]: 158 % of control
T/C [21]: 114 % of control and 105 % of control

Cc1ccc(C(=O)Nc2ccc(S(=O)(=O)O)c3cc(S(=O)(=O)O)cc(S(=O)(=O)O)c23)cc1NC(=O)c1cccc(NC(=O)Nc2cccc(C(=O)Nc3cc(C(=O)Nc4ccc(S(=O)(=O)O)c5cc(S(=O)(=O)O)cc(S(=O)(=O)O)c45)ccc3C)c2)c1
T/C [10]: 101 % of control
T/C [11]: 101 % of control
T/C [12]: 116 % of control

CC[C@@H](C)[C@H]([C@H](CC(=O)N1CCC[C@@H]1[C@@H](OC)[C@H](C)C(=O)N[C@H](Cc1ccccc1)c1nccs1)OC)N(C)C(=O)[C@H](NC(=O)[C@@H](C(C)C)N(C)C)C(C)C
T/C (endpoint: median survival time, dose: 1.63 micrograms/kg/injection, schedule: Q01DX005 (ip), vehicle: saline + alcohol): 119 % of control
T/C (endpoint: median survival time, dose: 6.5 micrograms/kg/injection, schedule: Q01DX005 (ip), vehicle: saline + alcohol): 160 % of control
T/C (endpoint: median survival time, dose: 26.0 micrograms/kg/injection, schedule: Q01DX005 (ip), vehicle: saline + alcohol): 86 % of control

Cc1nc2n3c(nc(C)c13)=CCC2
T/C [22]: 96 % of control
T/C [15]: 98 % of control
T/C [17]: 93 % of control
T/C [7]: 97 % of control

O=S(=O)(Cl)c1ccc(F)cc1
T/C [1]: 106 % of control
T/C [20]: 101 % of control
T/C [2]: 109 % of control
T/C [21]: 102 % of control
T/C [3]: 103 % of control
T/C (endpoint: mean survival time, dose: 400.0 mg/kg/injection, schedule: Q04DX003 (ip), vehicle: saline): 98 % of control

CCOc1ccc(Br)cc1/C=C(\C#N)c1ccc([N+](=O)[O-])cc1
T/C (endpoint: mean survival time, dose: 0.1 mg/kg/injection, schedule: Q01DX009 (ip), vehicle: saline with Tween-80): 98 % of control
T/C (endpoint: mean survival time, dose: 0.2 mg/kg/injection, schedule: Q01DX009 (ip), vehicle: saline with Tween-80): 97 % of control
T/C (endpoint: mean survival time, dose: 0.39 mg/kg/injection, schedule: Q01DX009 (ip), vehicle: saline with Tween-80): 93 % of control
T/C (endpoint: mean survival time, dose: 0.4 mg/kg/injection, schedule: Q01DX009 (ip), vehicle: saline with Tween-80): 90 % of control
T/C [16]: 87 % of control
T/C [13]: 89 % of control
T/C [14]: 86 % of control

CC(=O)CC1C(CC(=O)O)C1(C)C (stereo not drawn)
T/C (endpoint: mean survival time, dose: 100.0 mg/kg/injection, schedule: Q01DX001 (ip), vehicle: alcohol): 100 % of control
T/C (endpoint: mean survival time, dose: 200.0 mg/kg/injection, schedule: Q01DX001 (ip), vehicle: alcohol): 102 % of control
T/C (endpoint: mean survival time, dose: 400.0 mg/kg/injection, schedule: Q01DX001 (ip), vehicle: alcohol): 102 % of control

COc1cc(C(=O)O)cc(OC)c1OC
T/C [4]: 97 % of control
T/C [5]: 97 % of control
T/C [6]: 97 % of control

CCCCCCCCCCCCCCCCCCOCC(CO)OC (stereo not drawn)
T/C (endpoint: median survival time, dose: 25.0 mg/kg/injection, schedule: Q01DX009 (ip), vehicle: saline with Tween-80): 104 % of control
T/C (endpoint: median survival time, dose: 50.0 mg/kg/injection, schedule: Q01DX009 (ip), vehicle: saline with Tween-80): 101 % of control
T/C (endpoint: median survival time, dose: 100.0 mg/kg/injection, schedule: Q01DX009 (ip), vehicle: saline with Tween-80): 103 % of control
T/C (endpoint: median survival time, dose: 200.0 mg/kg/injection, schedule: Q01DX009 (ip), vehicle: saline with Tween-80): 102 % of control

CC12CCC(=O)CC1CCC1C2CCC2(C)C(C(=O)O)CCC12 (stereo not drawn)
T/C [4]: 96 % of control
T/C [5]: 102 % of control
T/C [6]: 96 % of control

Cc1ccc([N+](=O)[O-])cc1NC(=O)COc1cc(Cl)c(Cl)cc1Cl
T/C [7]: 110 % of control
T/C [8]: 90 % of control
T/C [9]: 90 % of control

O=S1(=O)Cc2ccc(Br)cc2C1
T/C [17]: 103 % of control
T/C [7]: 90 % of control
T/C [18]: 101 % of control
T/C [8]: 91 % of control
T/C [19]: 97 % of control
T/C [9]: 90 % of control

O=C1c2ccccc2CCC1(Br)Cc1ccccc1 (stereo not drawn)
T/C [4]: 98 % of control
T/C [5]: 96 % of control
T/C [6]: 94 % of control

O=C(/C=C/c1ccccc1)N/N=C/c1ccccc1Cl
T/C (endpoint: mean survival time, dose: 50.0 mg/kg/injection, schedule: Q01DX009 (ip), vehicle: Klucel (hydroxypropylcellulose) (HPC)): 105 % of control
T/C (endpoint: mean survival time, dose: 100.0 mg/kg/injection, schedule: Q01DX009 (ip), vehicle: Klucel (hydroxypropylcellulose) (HPC)): 105 % of control
T/C (endpoint: mean survival time, dose: 200.0 mg/kg/injection, schedule: Q01DX009 (ip), vehicle: Klucel (hydroxypropylcellulose) (HPC)): 105 % of control

CC(C)=CCN1C(=O)c2ccccc2C1=O
T/C [22]: 102 % of control
T/C [13]: 101 % of control
T/C [15]: 98 % of control
T/C [14]: 101 % of control
T/C [17]: 96 % of control
T/C [7]: 110 % of control
